Molecules are shown by their SMILES. pIC50: −log10 of the molar value.

Eleven compounds from US10654884B2 (Vitae Pharmaceuticals, Inc., priority 2014, dated 2020) can be followed below.

For test [1], the target named is T1, CD73 on U138 neuroglioma cells (Homo sapiens, UniProt P21589).
T1 construct: U138 neuroglioma cells, which express CD73 on their surface; endogenous in cells; host or cells: U138 neuroglioma cells (ATCC)
T1 sequence (P21589 27-549): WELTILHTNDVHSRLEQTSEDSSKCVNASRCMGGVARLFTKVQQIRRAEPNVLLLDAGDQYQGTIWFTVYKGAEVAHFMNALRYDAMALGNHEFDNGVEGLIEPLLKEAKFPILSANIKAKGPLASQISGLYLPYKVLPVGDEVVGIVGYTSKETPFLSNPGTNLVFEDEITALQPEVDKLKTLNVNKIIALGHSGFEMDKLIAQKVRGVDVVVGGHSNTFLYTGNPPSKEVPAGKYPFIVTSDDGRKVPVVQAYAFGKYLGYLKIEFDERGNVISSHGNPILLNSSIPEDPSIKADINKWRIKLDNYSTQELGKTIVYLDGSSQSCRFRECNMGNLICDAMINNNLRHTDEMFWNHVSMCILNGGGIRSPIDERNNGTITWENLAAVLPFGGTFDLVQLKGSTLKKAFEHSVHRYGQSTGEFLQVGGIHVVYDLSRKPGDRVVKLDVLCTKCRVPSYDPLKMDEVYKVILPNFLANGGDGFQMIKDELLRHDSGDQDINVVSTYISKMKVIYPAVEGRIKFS
Kind of test: Inhibition of Ecto-5′-Nucleotidase Activity in U138 Neuroglioma Cells (Assay 2). The conditions noted are these: 50 μM CMP, 2 hr at 37° C., malachite green readout, read-out: Assay 2: IC50, inhibition of ecto-5′-nucleotidase activity in U138 neuroglioma cells. Format: cell-based. The essentials:
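Whole-cell CD73 activity in U138 human neuroglioma cells seeded the day before, washed free of phosphate, then given test compound dilutions with 50 μM CMP in HEPES-buffered saline, pH 7.4, DMSO ≤0.1%. Incubated 2 hr at 37° C; released inorganic phosphate in supernatant measured by malachite green; IC50 by nonlinear regression.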

A further test addresses T2, human CD73 (Homo sapiens, UniProt P21589).
T2 construct: purchased R&D Systems 5795-EN-010
T2 sequence (P21589 27-549): T1 sequence (P21589 27-549)
Kind of test: Inhibition of 5′-Nucleotidase Activity of CD73 (Assay 1). Format: biochemical. The conditions noted are these: human CD73 4 ng/ml, 50 μM CMP, 20 min at RT, malachite green readout; read-out: Assay 1: IC50, inhibition of 5′-nucleotidase activity of CD73. The essentials:
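Human CD73 (4 ng/ml final) was incubated with 50 μM CMP in 25 mM Tris-HCl pH 7.4, 0.005% Brij-35 for 20 min at RT. Reactions were stopped with malachite green reagent and absorbance was read at 620 nm. IC50 came from a 4-parameter logistic fit.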

With `CCOC(=O)C(OC[C@H]1C[C@@H](n2nnc3c(NC[C@@H]4CCOC4)nc(Cl)nc32)[C@H](O)[C@@H]1O)P(=O)(O)O` (stereo partly drawn) [Example 88, (1-(((1R,2R,3S,4R)-4-(5-chloro-7-((((S)-tetrahydrofuran-3-yl)methyl)amino)-3H-[1,2,3]triazolo[4,5-d]pyrimidin-3-yl)-2,3-dihydroxycyclopentyl)methoxy)-2-ethoxy-2-oxoethyl)phosphonic Acid], the pIC50 (in test [1]; on human CD73) was > 7.00 each time.
In the case of `CCOC(=O)C(OC[C@H]1C[C@@H](n2nnc3c(NC[C@H]4CCOC4)nc(Cl)nc32)[C@H](O)[C@@H]1O)P(=O)(O)O` (stereo partly drawn) [Example 89, (1-(((1R,2R,3S,4R)-4-(5-chloro-7-((((R)-tetrahydrofuran-3-yl)methyl)amino)-3H-[1,2,3]triazolo[4,5-d]pyrimidin-3-yl)-2,3-dihydroxycyclopentyl)methoxy)-2-ethoxy-2-oxoethyl)phosphonic Acid], the pIC50 (in test [1]; on human CD73) was > 7.00 throughout.
Regarding `CCOC(=O)C(OC[C@H]1C[C@@H](n2nnc3c(N[C@@H]4CCOC4)nc(Cl)nc32)[C@H](O)[C@@H]1O)P(=O)(O)O` (stereo partly drawn) [Example 90, (1-(((1R,2R,3S,4R)-4-(5-chloro-7-(((R)-tetrahydrofuran-3-yl)amino)-3H-[1,2,3]triazolo[4,5-d]pyrimidin-3-yl)-2,3-dihydroxycyclopentyl)methoxy)-2-ethoxy-2-oxoethyl)phosphonic Acid], the pIC50 (in test [1]; at human CD73) was > 7.00 each time.
On to `CCOC(=O)C(OC[C@H]1C[C@@H](n2nnc3c(N[C@H]4CCOC4)nc(Cl)nc32)[C@H](O)[C@@H]1O)P(=O)(O)O` (stereo partly drawn) [Example 91, (1-(((1R,2R,3S,4R)-4-(5-chloro-7-(((S)-tetrahydrofuran-3-yl)amino)-3H-[1,2,3]triazolo[4,5-d]pyrimidin-3-yl)-2,3-dihydroxycyclopentyl)methoxy)-2-ethoxy-2-oxoethyl)phosphonic Acid], for which the pIC50 (in test [1]; on human CD73) was > 7.00 each time.
On to `CCOC(=O)C(OC[C@H]1C[C@@H](n2nnc3c(NC4CCCC4)nc(Cl)nc32)[C@H](O)[C@@H]1O)P(=O)(O)O` (stereo partly drawn) [Example 92, (1-(((1R,2R,3S,4R)-4-(5-chloro-7-(cyclopentylamino)-3H-[1,2,3]triazolo[4,5-d]pyrimidin-3-yl)-2,3-dihydroxycyclopentyl)methoxy)-2-ethoxy-2-oxoethyl)phosphonic Acid], for which the pIC50 (in test [1]; on human CD73) was > 7.00 in each case.
Regarding `Nc1nc(Cl)nc2c1ncn2[C@@H]1O[C@H](COC(Cc2ccccn2)(C(=O)O)C(=O)O)[C@@H](O)[C@H]1O` [Example 93, 2-(((2R,3S,4R,5R)-5-(6-amino-2-chloro-9H-purin-9-yl)-3,4-dihydroxytetrahydrofuran-2-yl)methoxy)-2-(pyridin-2-ylmethyl)malonic acid], the pIC50 (in test [1]; at human CD73) was > 7.00 throughout.
As to `Nc1nc(Cl)nc2c1ncn2[C@@H]1O[C@H](COC(Cc2nccs2)(C(=O)O)C(=O)O)[C@@H](O)[C@H]1O` [Example 94, 2-(((2R,3S,4R,5R)-5-(6-amino-2-chloro-9H-purin-9-yl)-3,4-dihydroxytetrahydrofuran-2-yl)methoxy)-2-(thiazol-2-ylmethyl)malonic acid], the pIC50 (in test [1]; on human CD73) was > 7.00 throughout.
For `Nc1nc(Cl)nc2c1ncn2[C@@H]1O[C@H](COC(Cc2cc(F)cc(F)c2)(C(=O)O)C(=O)O)[C@@H](O)[C@H]1O` [Example 96, 2-(((2R,3S,4R,5R)-5-(6-amino-2-chloro-9H-purin-9-yl)-3,4-dihydroxytetrahydrofuran-2-yl)methoxy)-2-(3,5-difluorobenzyl)malonic acid], the pIC50 (in test [1]; at human CD73) was > 7.00 in each case.
As to `O=C(O)C(Cc1ccc(F)cc1)(OC[C@H]1O[C@@H](n2cnc3c(NC4CCCC4)nc(Cl)nc32)[C@H](O)[C@@H]1O)C(=O)O` [Example 97, 2-(((2R,3S,4R,5R)-5-(2-chloro-6-(cyclopentylamino)-9H-purin-9-yl)-3,4-dihydroxytetrahydrofuran-2-yl)methoxy)-2-(4-fluorobenzyl)malonic acid], the pIC50 (in test [1]; at human CD73) was 6.00 to 7.00 each time.
With `Nc1nc(Cl)nc2c1ncn2[C@@H]1O[C@H](COC(CC2CC2)(C(=O)O)C(=O)O)[C@@H](O)[C@H]1O` [Example 98, 2-(((2R,3S,4R,5R)-5-(6-amino-2-chloro-9H-purin-9-yl)-3,4-dihydroxytetrahydrofuran-2-yl)methoxy)-2-(cyclopropylmethyl)malonic acid], the negative-log IC50 (pIC50) (in test [1]; at human CD73) was > 7.00 throughout.
For `CCOC(=O)C(SC[C@H]1O[C@@H](n2cnc3c(N)nc(Cl)nc32)[C@H](O)[C@@H]1O)P(=O)(O)O` (stereo partly drawn) [Example 99, (1-((((2S,3S,4R,5R)-5-(6-amino-2-chloro-9H-purin-9-yl)-3,4-dihydroxytetrahydrofuran-2-yl)methyl)thio)-2-ethoxy-2-oxoethyl)phosphonic Acid], the pIC50 (in test [1]; at human CD73) was 6.00 to 7.00 each time.
